The source of these data is ChEMBL document CHEMBL1152832, “Quantitative structure-activity relationship (QSAR) of aryl alkenyl amides/imines for bacterial efflux pump inhibitors” (2009).

≈ marks a conversion by molar mass, not a printed value. Calls of active or inactive are those of the source. The rule behind the calls is not given here.

Test [1] deals with Staphylococcus aureus. In words: Inhibition of multidrug resistance efflux pump in Staphylococcus aureus ATCC 29213 assessed as potentiation factor measured by reduction in weighted average of ciprofloxacin MIC by serial dilution method.
Test [2] concerns Staphylococcus aureus. In words: microbe, parasite or virus in culture. The note with it: ATCC 29213, 24 h.
Description: Antibacterial activity against Staphylococcus aureus ATCC 29213 after 24 hrs

Turning to `CCCC(/C=C/C(=O)N1CCN(C)CC1)=C\c1ccc(OC)cc1`, in the test on Staphylococcus aureus [1], the PF worked out at 130 and the logPF worked out at 2.11.
For `CCC(CCC(=O)NCC(C)C)Cc1ccc2c(c1)OCO2` (stereo not drawn), in the test with Staphylococcus aureus [1], the PF came to 70 and the logPF was 1.85.
For the compound `CC(=O)CNC(=O)CC(=O)/C=C/C(C)=C/c1ccc2c(c1)OCO2`, in the test on Staphylococcus aureus [1], the PF amounted to 310 and the logPF stood at 2.49.
Turning to `CCC(/C=C/C(=O)N1CCCCC1)=C\c1ccc(OC)c(OC)c1`, in the test with Staphylococcus aureus [1], the PF is 220 and the logPF worked out at 2.34.
Taken in the same sequence, the figures for `CC(/C=C/C(=O)N1CCC(O)CC1)=C\c1ccc2c(c1)OCO2` were 210 and 2.32.
`CCCCC(/C=N/c1ccccc1C(=O)O)=C\c1ccc(OC)cc1`: in the test on Staphylococcus aureus [1], the PF is 100 and the logPF is 2.
On to `COc1ccc(/C=C(C)/C=C/C(=O)N2CCCCC2)cc1`, for which, in the test on Staphylococcus aureus [1], the PF was 130 and the logPF stood at 2.11.
For the compound `CC(/C=C/C(=O)N1CCCCC1)=C\c1ccc2c(c1)OCO2`, in the test on Staphylococcus aureus [1], the PF is 180 and the logPF was found to be 2.25.
The matching figures for `CC(/C=C/C(=O)N1CCCC1)=C\c1ccc2c(c1)OCO2` (stereo in doubt; 3): 110 and 2.04.
For `CCCC(/C=C/C(=O)N1CCCCC1)=C\c1ccc(OC)cc1`, in the test on Staphylococcus aureus [1], the PF was found to be 210 and the logPF was found to be 2.32.
Taken in the same sequence, the figures for `CCC(/C=C/C(=O)Nc1ccccc1C)=C\c1ccc2c(c1)OCO2` were 60 and 1.78.
As to `CCCCC(/C=C/C(=O)N1CCCCC1)=C\c1ccc2c(c1)OCO2`, in the test on Staphylococcus aureus [1], the PF came out at 200 and the logPF was 2.3.
As to `CCCCCCC(/C=C/C(=O)N1CCCCC1)=C\c1ccc(OC)cc1`, in the test on Staphylococcus aureus [1], the PF was determined as 130 and the logPF was 2.11.
The matching figures for `CC(/C=C/C(=O)N1CCCC1)=C\c1ccc2c(c1)OCO2` (stereo in doubt; 12): 130 and 2.11.
Take `CCCCC(/C=N/C(CC)CO)=C\c1ccc(OC)cc1` (stereo not drawn): in the test on Staphylococcus aureus [1], the PF worked out at 100 and the logPF is 2.
Taken in the same sequence, the figures for `CCC(/C=C/CN1CCCCC1)=C\c1ccc2c(c1)OCO2` were 70 and 1.85.
The matching figures for `CCC(/C=C/C(=O)O)=C\c1ccc2c(c1)OCO2`: 10 and 1.
As for `CC(/C=C/C(=O)N1CCN(C)CC1)=C\c1ccc2c(c1)OCO2`, in the test on Staphylococcus aureus [1], the PF was determined as 130 and the logPF was determined as 2.11.
Take `CCC(/C=C/C(=O)N1CCN(C)CC1)=C\c1ccc2c(c1)OCO2`: in the test on Staphylococcus aureus [1], the PF turned out to be 130 and the logPF turned out to be 2.11.
For `CCC(/C=C/C(=O)NCC(C)C)=C\c1ccc2c(c1)OCO2`, in the test on Staphylococcus aureus [1], the PF worked out at 270 and the logPF was determined as 2.43.
Regarding `CCC(/C=C/C(=O)N1CCCCC1)=C\c1ccc2c(c1)OCO2`, in the test on Staphylococcus aureus [1], the PF stood at 240 and the logPF stood at 2.38.
Taken in the same sequence, the figures for `CCC(/C=C/C(=O)N1CCCC1)=C\c1ccc2c(c1)OCO2` were 90 and 1.95.
The matching figures for `C(/C=C/c1ccc2c(c1)OCO2)=C\CN1CCCCC1`: 30 and 1.48.
`O=C(O)c1cn(C2CC2)c2cc(N3CCNCC3)c(F)cc2c1=O` [CIPROFLOXACIN] gave an MIC against Staphylococcus aureus [2] of 0.25 µg/mL (≈ 0.754 µM).
On to `CCC(/C=C/C(=O)N[C@@](C)(O)c1ccccc1)=C\c1ccc2c(c1)OCO2`, for which, in the test on Staphylococcus aureus [1], the PF was determined as 30 and the logPF came out at 1.48.
For `CCCC(/C=C/C(=O)N1CCCCC1)=C\c1ccc2c(c1)OCO2`, in the test with Staphylococcus aureus [1], the PF worked out at 210 and the logPF worked out at 2.32.
In the case of `CCC(CCCC(=O)NCC(=O)NCC(=O)OC)Cc1ccc2c(c1)OCO2` (stereo not drawn), in the test with Staphylococcus aureus [1], the PF came out at 70 and the logPF turned out to be 1.85.
As for `CC(/C=C/C(=O)O)=C\c1ccc2c(c1)OCO2`, in the test with Staphylococcus aureus [1], the PF came out at 10 and the logPF is 1.
For `CCCC(/C=C/C(=O)O)=C\c1ccc2c(c1)OCO2`, in the test with Staphylococcus aureus [1], the PF result is “inactive” and the logPF entry was “inactive”.
On to `CC(/C=C/C(=O)NC(C)c1ccc(Br)cc1)=C\c1ccc2c(c1)OCO2` (stereo not drawn), for which, in the test on Staphylococcus aureus [1], the PF stood at 380 and the logPF was 2.58.
Take `CCCC(/C=C/C(=O)N1CCN(C)CC1)=C\c1ccc2c(c1)OCO2`: in the test with Staphylococcus aureus [1], the PF was 60 and the logPF stood at 1.78.
`CCOC(=O)/C=C/C(C)=C/c1ccc2c(c1)OCO2`: in the test with Staphylococcus aureus [1], the PF result was “inactive” and the logPF entry is “inactive”.
Take `CCC(/C=C/C(=O)Nc1ccccc1OC)=C\c1ccc2c(c1)OCO2`: in the test with Staphylococcus aureus [1], the PF turned out to be 60 and the logPF amounted to 1.78.
Turning to `CCCCC(/C=C/C(=O)N1CCC(O)CC1)=C\c1ccc2c(c1)OCO2`, in the test on Staphylococcus aureus [1], the PF was 70 and the logPF was found to be 1.85.
`CCC(CO)NC(=O)/C=C/C(C)=C/c1ccc2c(c1)OCO2` (stereo not drawn): in the test on Staphylococcus aureus [1], the PF stood at 30 and the logPF worked out at 1.48.
On to `CCC(/C=C/C(=O)NCC(=O)OC)=C\c1ccc2c(c1)OCO2`, for which, in the test on Staphylococcus aureus [1], the PF amounted to 290 and the logPF was found to be 2.46.
Regarding `CCCCC(/C=C/C(=O)N1CCN(C)CC1)=C\c1ccc2c(c1)OCO2`, in the test with Staphylococcus aureus [1], the PF came out at 160 and the logPF came out at 2.2.
Turning to `CCC(/C=C/C(=O)Nc1ccccc1)=C\c1ccccc1`, in the test on Staphylococcus aureus [1], the PF was determined as 210 and the logPF turned out to be 2.32.
In the case of `COc1cc(/C=C(C)/C=C/C(=O)N2CCCCC2)ccc1O`, in the test with Staphylococcus aureus [1], the PF stood at 10 and the logPF is 1.
For `CCC(/C=C/C(=O)NC(C)C=O)=C\c1ccc2c(c1)OCO2` (stereo not drawn), in the test with Staphylococcus aureus [1], the PF amounted to 30 and the logPF came to 1.48.
For the compound `CCC(/C=C/C(=O)N1CCC(O)CC1)=C\c1ccc2c(c1)OCO2`, in the test with Staphylococcus aureus [1], the PF worked out at 210 and the logPF is 2.32.
With `CCC(/C=N/C(CC)CO)=C\c1ccc2c(c1)OCO2` (stereo not drawn), in the test on Staphylococcus aureus [1], the PF worked out at 150 and the logPF came to 2.18.
Turning to `COC(=O)/C=C/C(C)=C/c1ccc2c(c1)OCO2`, in the test with Staphylococcus aureus [1], the PF entry was “inactive” and the logPF entry was “inactive”.
Consider `O=C(/C=C/C=C/c1ccc2c(c1)OCCO2)N1CCOCC1`, for which, in the test with Staphylococcus aureus [1], the PF is 40 and the logPF was 1.6.
Taken in the same sequence, the figures for `CC/C=C/C(=C/c1ccc2c(c1)OCO2)CC` were 20 and 1.3.
Turning to `CC(/C=C/C(=O)N1CCOCC1)=C\c1ccc2c(c1)OCO2`, in the test on Staphylococcus aureus [1], the PF result was “inactive” and the logPF result is “inactive”.
As to `CCCCC(/C=N/O)=C\c1ccc(OC)cc1`, in the test with Staphylococcus aureus [1], the PF came to 100 and the logPF amounted to 2.
